Test results as given in PubChem BioAssay (NCI).
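Exposure lasted 48 hours, with cells grown in 96-well plates and compounds tested at five concentrations. TGI is the concentration that stops growth completely.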

What was measured:
Test in all cases: DTP human tumour cell line panel, 48 h
786-0 renal = test system: 786-0 renal
A498 renal = test system: A498 renal
A549 NSCLC = test system: A549 NSCLC
ACHN renal = test system: ACHN renal
BT-549 breast = test system: BT-549 breast
CCRF-CEM leukemia = test system: CCRF-CEM leukemia
DU-145 prostate = test system: DU-145 prostate
EKVX NSCLC = test system: EKVX NSCLC
HCC-2998 colon = test system: HCC-2998 colon
HCT-15 colon = test system: HCT-15 colon
HL-60(TB) leukemia = test system: HL-60(TB) leukemia
HOP-62 NSCLC = test system: HOP-62 NSCLC
HOP-92 NSCLC = test system: HOP-92 NSCLC
HS 578T breast = test system: HS 578T breast
HT29 colon = test system: HT29 colon
IGROV1 ovarian = test system: IGROV1 ovarian
K-562 leukemia = test system: K-562 leukemia
LOX IMVI melanoma = test system: LOX IMVI melanoma
M14 melanoma = test system: M14 melanoma
MALME-3M melanoma = test system: MALME-3M melanoma
MDA-MB-435 = test system: MDA-MB-435
MDA-N = test system: MDA-N
MOLT-4 leukemia = test system: MOLT-4 leukemia
NCI-H23 lung = test system: NCI-H23 lung
NCI-H460 lung = test system: NCI-H460 lung
NCI/ADR-RES ovarian = test system: NCI/ADR-RES ovarian
OVCAR-3 ovarian = test system: OVCAR-3 ovarian
OVCAR-4 ovarian = test system: OVCAR-4 ovarian
OVCAR-5 ovarian = test system: OVCAR-5 ovarian
OVCAR-8 ovarian = test system: OVCAR-8 ovarian
PC-3 prostate = test system: PC-3 prostate
RPMI-8226 leukemia = test system: RPMI-8226 leukemia
RXF 393 renal = test system: RXF 393 renal
SF-268 CNS = test system: SF-268 CNS
SF-295 CNS = test system: SF-295 CNS
SK-MEL-28 melanoma = test system: SK-MEL-28 melanoma
SK-MEL-5 melanoma = test system: SK-MEL-5 melanoma
SN12C renal = test system: SN12C renal
SNB-19 CNS = test system: SNB-19 CNS
SNB-75 CNS = test system: SNB-75 CNS
SR leukemia = test system: SR leukemia
SW-620 colon = test system: SW-620 colon
TK-10 renal = test system: TK-10 renal
U251 CNS = test system: U251 CNS
UACC-257 melanoma = test system: UACC-257 melanoma
UO-31 renal = test system: UO-31 renal
CAKI-1 renal = test system: CAKI-1 renal
COLO 205 colon = test system: COLO 205 colon
HCT-116 colon = test system: HCT-116 colon
KM12 colon = test system: KM12 colon
MCF7 breast = test system: MCF7 breast
NCI-H522 lung = test system: NCI-H522 lung
SF-539 CNS = test system: SF-539 CNS
SK-MEL-2 melanoma = test system: SK-MEL-2 melanoma
T-47D breast = test system: T-47D breast
UACC-62 melanoma = test system: UACC-62 melanoma

## CN1CC[C@@]2(c3cccc(O)c3)CC(=O)/C(=C/c3ccc(Cl)c(Cl)c3)[C@H]1C2
786-0 renal
  TGI: 3.07 µM
A498 renal
  TGI: 26.5 µM
A549 NSCLC
  TGI: 11.5 µM
ACHN renal
  TGI: 3.38 µM
BT-549 breast
  TGI: 4.33 µM
CCRF-CEM leukemia
  TGI: > 100 µM
DU-145 prostate
  TGI: 16.4 µM
EKVX NSCLC
  TGI: 21 µM
HCC-2998 colon
  TGI: 3.37 µM
HCT-15 colon
  TGI: 3.77 µM
HL-60(TB) leukemia
  TGI: 3.82 µM
HOP-62 NSCLC
  TGI: 6.2 µM
HOP-92 NSCLC
  TGI: 18.1 µM
HS 578T breast
  TGI: 7.19 µM
HT29 colon
  TGI: 2.72 µM
IGROV1 ovarian
  TGI: 5.65 µM
K-562 leukemia
  TGI: 3.66 µM
LOX IMVI melanoma
  TGI: 2.81 µM
M14 melanoma
  TGI: 5.02 µM
MALME-3M melanoma
  TGI: 13.1 µM
MDA-MB-435
  TGI: 2.8 µM
MDA-N
  TGI: 3.77 µM
MOLT-4 leukemia
  TGI: 8.47 µM
NCI-H23 lung
  TGI: 15.9 µM
NCI-H460 lung
  TGI: 4.72 µM
NCI/ADR-RES ovarian
  TGI: 7.09 µM
OVCAR-3 ovarian
  TGI: 4.07 µM
OVCAR-4 ovarian
  TGI: 17.2 µM
OVCAR-5 ovarian
  TGI: 14.4 µM
OVCAR-8 ovarian
  TGI: 10.1 µM
PC-3 prostate
  TGI: 3.07 µM
RPMI-8226 leukemia
  TGI: 4.37 µM
RXF 393 renal
  TGI: 5.62 µM
SF-268 CNS
  TGI: 7.01 µM
SF-295 CNS
  TGI: 3.86 µM
SK-MEL-28 melanoma
  TGI: 4.65 µM
SK-MEL-5 melanoma
  TGI: 5.53 µM
SN12C renal
  TGI: 3.89 µM
SNB-19 CNS
  TGI: 12.5 µM
SNB-75 CNS
  TGI: 2.63 µM
SR leukemia
  TGI: 5.92 µM
SW-620 colon
  TGI: 3.06 µM
TK-10 renal
  TGI: 27 µM
U251 CNS
  TGI: 2.67 µM
UACC-257 melanoma
  TGI: 12.6 µM
UO-31 renal
  TGI: 4.33 µM

## COc1cccc(C2c3cc4c(cc3OC(N3CCCC3)C2c2ccccc2)OCO4)c1O (stereo not drawn)
786-0 renal
  TGI: 27.8 µM
A549 NSCLC
  TGI: 61.4 µM
ACHN renal
  TGI: 25.8 µM
CAKI-1 renal
  TGI: 7 µM
CCRF-CEM leukemia
  TGI: 24.6 µM
COLO 205 colon
  TGI: 27.3 µM
DU-145 prostate
  TGI: 90.5 µM
EKVX NSCLC
  TGI: 73.3 µM
HCC-2998 colon
  TGI: 23.9 µM
HCT-116 colon
  TGI: 17.7 µM
HCT-15 colon
  TGI: 37.3 µM
HOP-62 NSCLC
  TGI: 47.6 µM
HS 578T breast
  TGI: 8.53 µM
HT29 colon
  TGI: 26.2 µM
IGROV1 ovarian
  TGI: 47.8 µM
K-562 leukemia
  TGI: 42.6 µM
KM12 colon
  TGI: 18.7 µM
LOX IMVI melanoma
  TGI: 46.2 µM
M14 melanoma
  TGI: 25.4 µM
MCF7 breast
  TGI: 32.6 µM
MDA-MB-435
  TGI: 22.8 µM
MDA-N
  TGI: 24.6 µM
MOLT-4 leukemia
  TGI: 21.5 µM
NCI-H23 lung
  TGI: 36.2 µM
NCI-H460 lung
  TGI: 33.7 µM
NCI-H522 lung
  TGI: 58.4 µM
NCI/ADR-RES ovarian
  TGI: 67.2 µM
OVCAR-3 ovarian
  TGI: 27.8 µM
OVCAR-5 ovarian
  TGI: 75.2 µM
OVCAR-8 ovarian
  TGI: 61.2 µM
PC-3 prostate
  TGI: 27 µM
RPMI-8226 leukemia
  TGI: 31 µM
SF-268 CNS
  TGI: 46.4 µM
SF-295 CNS
  TGI: 30.3 µM
SF-539 CNS
  TGI: 21.7 µM
SK-MEL-2 melanoma
  TGI: 27.9 µM
SK-MEL-28 melanoma
  TGI: 28.1 µM
SK-MEL-5 melanoma
  TGI: 22.6 µM
SN12C renal
  TGI: 31 µM
SNB-19 CNS
  TGI: 27.7 µM
SR leukemia
  TGI: 32.7 µM
SW-620 colon
  TGI: 25.4 µM
T-47D breast
  TGI: > 100 µM
TK-10 renal
  TGI: 73.6 µM
UACC-257 melanoma
  TGI: 24.4 µM
UACC-62 melanoma
  TGI: 47.2 µM
UO-31 renal
  TGI: 20.1 µM
